The text below walks through data of patent US8765676B2, “Calcium sensing receptor modulating compounds and pharmaceutical use thereof” (Leo Pharma A/S, priority 2009, dated 2014).

Data set [1] in a line: Pharmacokinetic profile following intravenous administration in rats. It is filed as in vivo. As to conditions: serum, rat, 0.5 mg/kg. On the procedure:
A rat is dosed intravenously with a solution of test compound (0.5 mg/kg) in DMSO/EtOH/H2O/propylene glycol [0.2:0.8:5:4] and blood samples are taken from the sublingual venous plexus after 2 min, 10 min, 30 min, 1 h, 2 h, 4 h and 6 h.
Blood samples are taken in BD Vacutainer SST serum separation tubes, serum is isolated by centrifugation, transferred to micronics tubes and analyzed. Samples are kept at −18° C. pending analysis.
Mass spectrometer (API5000 series) parameters are optimised to analyse for the specific compounds and test injections are performed to confirm the validity of the established generic chromatography method. The generic method is based on fast gradient (2.5 min) analysis on C18 column with mobile phases consisting methanol, ammonium acetate, formic acid and water.
Standards are prepared in rat serum to cover the analytical range 0.1 to 300 ng/ml. Standards, blank serum and study samples are applied to 96 deepwell plate and proteins are precipitated by addition of acetonitrile containing internal standard. Samples are analysed on LC-MS/MS usually over night.
As standard, the 2 and 10 min samples are diluted 10 times with rat serum prior to analysis. Other samples may need similar dilution to keep quantification below 300 ng/ml.
Quantification is performed based on the ratio between analyte and internal standard. The curve should preferably fit a linear curve using a 1/x weighting factor. At least a factor of two is needed to distinguish between blank serum and lowest standard. If this is not the case the quantification of the specific experiment may be raised.
Calculation of T½ requires at least three datapoints describing a true elimination phase. If such three points are not available AUC (0-inf) can not be estimated. In these cases […](0-6 h) is calculated instead.
Total clearance of drug from serum (Cl_iv) is calculated from: Cl—iv=Dose/AUC
Terminal volume of distribution (Vd) is defined as the volume in which the amount of drug would need to be uniformly distributed to produce the observed serum concentration and is calculated from: Vd=T½×Cl—iv/(ln 2)

For another data set, the target named is T1, human CaSR (Homo sapiens, UniProt P41180).
T1 sequence (P41180 20-1078): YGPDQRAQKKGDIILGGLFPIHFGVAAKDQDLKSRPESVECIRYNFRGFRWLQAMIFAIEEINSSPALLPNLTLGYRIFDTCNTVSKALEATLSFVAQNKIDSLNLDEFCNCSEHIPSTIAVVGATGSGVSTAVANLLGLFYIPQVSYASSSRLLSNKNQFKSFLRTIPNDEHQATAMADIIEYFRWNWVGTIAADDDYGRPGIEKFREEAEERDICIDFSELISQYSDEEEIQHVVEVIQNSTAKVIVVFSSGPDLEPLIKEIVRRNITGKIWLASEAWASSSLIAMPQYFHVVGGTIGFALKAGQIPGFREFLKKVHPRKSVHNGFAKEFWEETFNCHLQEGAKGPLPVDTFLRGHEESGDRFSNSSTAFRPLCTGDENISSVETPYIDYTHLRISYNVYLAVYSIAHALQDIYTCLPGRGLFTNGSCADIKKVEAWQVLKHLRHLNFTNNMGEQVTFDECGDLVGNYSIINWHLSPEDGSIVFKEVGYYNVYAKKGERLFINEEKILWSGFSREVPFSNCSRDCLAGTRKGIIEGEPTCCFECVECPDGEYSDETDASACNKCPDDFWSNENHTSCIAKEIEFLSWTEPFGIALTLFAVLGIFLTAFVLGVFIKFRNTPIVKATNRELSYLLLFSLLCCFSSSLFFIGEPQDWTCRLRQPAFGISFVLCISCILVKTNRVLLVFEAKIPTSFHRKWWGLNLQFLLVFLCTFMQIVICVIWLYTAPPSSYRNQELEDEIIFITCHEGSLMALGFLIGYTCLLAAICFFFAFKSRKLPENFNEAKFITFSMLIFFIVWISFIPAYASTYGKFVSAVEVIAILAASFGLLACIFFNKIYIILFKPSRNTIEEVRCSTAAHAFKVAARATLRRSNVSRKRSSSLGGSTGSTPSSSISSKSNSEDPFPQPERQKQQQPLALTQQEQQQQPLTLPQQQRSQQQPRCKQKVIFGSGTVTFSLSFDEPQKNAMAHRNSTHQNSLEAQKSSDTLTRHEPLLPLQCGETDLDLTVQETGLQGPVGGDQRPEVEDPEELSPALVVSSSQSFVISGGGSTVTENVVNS
The data set can be described thus: Functional whole cell assay (modulation of human CaSR), IP1 accumulation in CHO-K1 cells. Format: cell-based. Particulars: human CaSR stably expressed on CHO-K1 cells, 2 mM Ca2+, IP-One htrf. The text has this:
The assay investigates a compound's functional ability to act as a biological positive modulator on the human CaSR. Activation of the receptor expressed on CHO-K1 cells is detected through the G alpha q pathway, the activation of phospholipase C and the accumulation of intracellular inositol phosphate (IP) as described earlier [Sandrine Ferry, Bruno Chatel, Robert H. Dodd, Christine Lair, Danielle Gully, Jean-Pierre, Maffrand, and Martial Ruat. Effects of Divalent Cations and of a Calcimimetic on Adrenocorticotropic Hormone Release in Pituitary Tumor Cells. BIOCHEMICAL AND BIOPHYSICAL RESEARCH COMMUNICATIONS 238, 866-873 (1997)]. The human CaSR is stably expressed on a CHO-K1 cell clone, stimulated with a basal level of calcium and challenged with the tested compound. The level of IP1 is determined using the IP-One htrf kit (Cisbio, France). CHO-K1 cells not transfected with the CaSR fail to elicit an IP1 response upon calcium and/or compound stimulation.
The ORF coding for the human CaSR (genebank: NM_000388) was acquired from Invitrogen Corp, USA and subsequently cloned into the mammalian expression vector pCDA3.1.
CHO-K1 cells were transfected using Lipofectamine according to manufacturer's protocol (400.000 cells/well were seeded in a 6-well plate and transfected after 24 hours using 2 μg DNA and 5 μl lipofectamine). After another 24 hours the cells were detached, seeded and subjected to 1 mg/ml of G-418. Following 7 days growth single clones were picked, the CaSR expression evaluated using the 5C10 antibody against CaSR, the clones with the highest expression were selected and tested for functional response. The preferred clone was continuously cultured according to standard procedures described in ATCC (American Type Culture Collection) protocols for CHO-K1 with the addition of 500 μg/ml G-418.
On the assay day cells were harvested and resuspended to 13*10^6 cells/ml in stimulation buffer (containing: Hepes 10 mM, MgCl2 0.5 mM, KCl 4.2 mM, NaCl 146 mM, glucose 5.5 mM, LiCl 50 mM at pH 7.4). Five μl cell solution were pipetted into a well (white 384-well plate, Perkin Elmer Optiplate) followed by 5 μl compound diluted in a Ca^2+-containing (to the final concentration of 2 mM) buffer. After compound stimulation for 1 hour at 37° C. 10 ul of IP-One assay reagents were added and incubated for another 1 hour at room temperature. Finally the plate was read using a Perkin Elmer EnVision, according to protocol supplied by the IP-One assay kit manufacturer. The FRET ratio was calculated by dividing the 665 nm emission signal with that of the 615 nm.

Data set [2] can be described thus: Clearance in human liver microsomes. Format: in vitro ADME. Particulars: 0.5 μM compound, 0.5 mg/mL microsomes, 1 mM NADPH. On the procedure:
Test compound concentration is 0.5 μM, microsome concentration is 0.5 mg/mL and NADPH concentration is 1 mM in the incubation. The described method is performed by the liquid handling system Tecan RSP and is based on a 96-well format.
Control incubations with test compound without NADPH and test compound without microsomes are conducted to investigate non-CYP mediated metabolism and stability in phosphate buffer at 37° C., respectively.
The human liver microsomal suspension in phosphate buffer is mixed with NADPH. The mixture is pre-heated (7 min) to 37° C. Test compound is added, and the mixture is incubated for 30 minutes. Incubations are run in duplicate. Samples are withdrawn at predetermined stop times and mixed with methanol containing internal standard (IS) to terminate all enzyme activity and precipitate proteins. A control without NADPH (to detect problems such as nonspecific protein binding, heat instability or non-CYP mediated metabolism) and a control without microsomes (for assessing compound stability in the absence of any active enzymes) are tested.
The percentage of organic solvent in the incubations is less than 1%. Careful inspections of reagents are performed prior to the start of any experiment to ensure all reagents are in solution.
The 96-well plates are centrifuged. Test compound depletion, using a compound specific LC/MS/MS method, is determined.
The logarithm of the peak area ratios of test compound to internal standard (IS) versus incubation time is plotted in a graph.
The rate constant (k) (min^−1) of test compound depletion is calculated from the linear part of the curve and the half-time (t1/2) in minutes can be calculated from the rate constant (Eq. 1). t1/2=(ln 2)/k (Eq. 1)
Intrinsic clearance (Clint) (mL/min/mg protein) is calculated from: Clint=k/c (Eq. 2) where c is the microsomal protein concentration in mg/mL.
Conversion to apparent clearance (Clapp) (mL/min/kg) is done by Eq. 3: Clapp=Clint×a×b/d (Eq. 3) where a, b and d are the scaling factors for normalizing Clint to human body weight.
The following human scaling factors are used:
a: 45 (microsomal protein/liver weight (mg/g))
b: 1500 (liver weight (g))
Apparent clearance below approximately 10 mL/min/kg human body weight (corresponding to extraction ratio of approx. 30%) is considered as low clearance (high metabolic stability). Apparent intrinsic clearance above approximately 60 mL/min/kg human body weight (corresponding to extraction ratio of approx. 75%) is considered as high clearance (low metabolic stability).
Background: Liver microsomes are vesicles of endoplasmic reticulum, rich in cytochrome P450 enzymes.

Molecules are shown by their SMILES.

For `COc1cc([C@@H](C)NC2CC[C@H](c3ccc(C(=O)NC4CCNCC4)cc3)C2)ccc1F` (mixture of isomers) [Compound 1157, (1R)—(N)-[(3S)-3-[4-[piperidin-4-ylaminocarbonyl]phenyl]-cyclopentyl]-1-(4-fluoro-3-methoxyphenyl)ethanamine], the Vd in data set [1] is 10 to 50 L/kg. On human CaSR, this compound showed an EC50 below 500 nM. For the same compound, the “Clearance (Clapp) in human liver microsomes” value (shortened to “Clearance (Clapp)”) in data set [2] is given as “A (A: <20 mL/min/kg)”.

Take `COc1cc([C@@H](C)NC2CCC(c3ccc(CNS(C)(=O)=O)cc3)C2)ccc1F` (mixture of isomers) [Compound 1181, N-[[4-[(1R/S,3R/S)-3-[[(1R)-1-(4-fluoro-3-methoxy-phenyl)ethyl]amino]cyclopentyl]-phenyl]methyl]methanesulfonamide]: the EC50 at human CaSR was below 500 nM. The “Clearance (Clapp)” value in data set [2] is “A (A: <20 mL/min/kg)”.

With `COc1cc([C@@H](C)NC2CC[C@H](c3ccc(S(C)(=O)=O)cc3)C2)ccc1F` (stereo partly drawn) [Compound 1014, (1R)—(N)-[(1R/S,3S)-3-(4-methanesulfonylphenyl)cyclopentyl]-1-(4-fluoro-3-methoxyphenyl)ethanamine], the EC50 on human CaSR is below 500 nM. Further, the “Clearance (Clapp)” value in data set [2] is reported as “A (A: <20 mL/min/kg)”.

Consider `COc1cc([C@@H](C)N[C@H]2CC[C@@H](c3ccc(C(=O)NCCO)cc3)C2)ccc1F` [Compound 1176, 4-{(1R,3S)-3-[(1R)-1-(4-Fluoro-3-methoxy-phenyl)-ethylamino]-cyclopentyl}-N-(2-hydroxy-ethyl)-benzamide], for which the EC50 on human CaSR was below 500 nM. Further, the “Clearance (Clapp)” value in data set [2] was “A (A: <20 mL/min/kg)”.

In data set [1], `COc1cc([C@@H](C)N[C@H]2CC[C@@H](c3ccc(C(=O)NCCNS(C)(=O)=O)cc3)C2)ccc1F.Cl` [Compound 1178, 4-{(1R,3S)-3-[(1R)-1-(4-Fluoro-3-methoxy-phenyl)-ethylamino]-cyclopentyl}-N-(2-methanesulfonylamino-ethyl)-benzamide hydrochloride] displayed a Vd above 50 L/kg. In addition, on human CaSR, the EC50 is below 500 nM. For the same compound, the “Clearance (Clapp)” value in data set [2] was “A (A: <20 mL/min/kg)”.

In data set [1], `COc1cc([C@@H](C)N[C@H]2CC[C@@H](c3ccc(C(=O)N4CCNC(=O)C4)cc3)C2)ccc1F` [Compound 1179, 4-(4-{(1R,3S)-3-[(1R)-1-(4-Fluoro-3-methoxy-phenyl)-ethylamino]-cyclopentyl}-benzoyl)-piperazin-2-one] displayed a Vd of 10 to 50 L/kg. In addition, at human CaSR, the EC50 was below 500 nM. Also, the “Clearance (Clapp)” value in data set [2] is given as “A (A: <20 mL/min/kg)”.

`COc1cc([C@@H](C)N[C@H]2CC[C@@H](c3ccc(-c4nnn[nH]4)cc3)C2)ccc1F` [Compound 1182, (1S,3R)—N-[(1R)-1-(4-fluoro-3-methoxy-phenyl)ethyl]-3-[4-(1H-tetrazol-5-yl)phenyl]cyclopentanamine] returned a Vd in data set [1] below 10 L/kg. This compound also had an EC50 at human CaSR below 500 nM. Besides, the “Clearance (Clapp)” value in data set [2] is recorded as “A (A: <20 mL/min/kg)”.

Regarding `COc1cc([C@@H](C)N[C@H]2CC[C@@H](c3ccc(S(=O)(=O)NCCO)cc3)C2)ccc1F` [Compound 1187, 4-[(1R,3S)-3-[[(1R)-1-(4-fluoro-3-methoxy-phenyl)ethyl]amino]-cyclopentyl]-N-(2-hydroxyethyl)benzenesulfonamide], the Vd in data set [1] was above 50 L/kg. Further, on human CaSR, the EC50 was below 500 nM. In data set [2], the “Clearance (Clapp)” value is on record as “A (A: <20 mL/min/kg)”.

The Vd is the apparent volume that relates the amount in the body to the concentration in plasma or blood. For orientation: EC50 means the concentration giving half of the maximal effect. A higher EC50 goes with a less potent agent.
